{"source": "patent US5185149A", "about": "“Methods for thrombolytic therapy” (Merck & Co., Inc., priority 1990, dated 1993)", "test_system": "blood clots (whole blood or plasma clot labelled with 125I-fibrinogen)", "test": "in vitro clot lysis assay (release of 125I-fibrin-derived fragments, TPA-initiated lysis)", "assay_type": "biochemical", "settings": "buffer pH 7.5", "protocol": "In the assay, whole blood or plasma is charged with ^125 I-fibrinogen Thrombin is added to initiate clot formation and subsequently incubated for 2 hours to complete the cross-linking by endogenous Factor XIII. Factor XIIIa inhibitor is added prior to clot initiation or at various times during the 2-hour incubation. At the end of this period, the labelled clot is washed and lysis is initiated by exogenous tissue plasminogen activator (TPA). Exogenous plasminogen is employed in some experiments Endogenous plasminogen is used for others. Clot dissolution as a function of time is monitored by the release of solubilized ^125 I-fibrin-derived fragments.\nIn FIGS. 1 and 2, the open symbols indicate absence of cerulenin and the closed symbols indicate the presence of 200μM cerulenin at the time of clot formation. Clot lysis is conducted in buffer, pH 7.5; 5 ng/mL TPA represents approximate physiologic concentration. 50 to […] represents pharmacologic concentration range. […] FIG. 2 studies employed glu-plasminogen levels at approximately 10 percent physiologic level ([…]).", "data": [{"smiles": "C/C=C/C/C=C/CCC(=O)[C@H]1O[C@H]1C(N)=O", "note": "[Cerulenin, 3-(1-oxo-4,7-nonadienyl)-oxiranecarboxamide]", "values": [{"measurement": "rates and extents of clot lysis", "setting": "200μM inhibitor at clot formation, no exogenous plasminogen, TPA at physiological and pharmacological levels, FIG. 1", "result": "enhanced rates and extents of lysis"}, {"measurement": "rate of TPA catalyzed clot lysis", "setting": "200μM inhibitor, 12μg/mL exogenous glu-plasminogen, TPA, FIG. 2", "result": "lysis rates were further enhanced"}]}]}
